In patent US20230337719A1, “ORAL PRODUCT” (Nicoventures Trading Limited, priority 2020, published 2023):

Columns and labels:
[1] = Modern Oral Intervention Trial: in-mouth glycoside degradation of spiked oral product, HPLC quantitation; assay type: in vivo, human
Method: Test Product - An oral product was prepared based on the commercial product sold by British American Tobacco as LYFT. The product included microcrystalline cellulose as a filler. […] The samples were then left at room temperature for one day to evaporate the ethanol.
Modern Oral Intervention Trial - Three healthy volunteers (female, 30-35 years of age) were asked to place the raspberry ketone spiked oral product under their upper lip, slightly to the side of the front teeth. After 30 sec, the product was moisturised by using the tip of the tongue. After 5 min, the product was disgorged into a centrifuge tube and any salivary enzymatic processes stopped by adding methanol (5 mL, p.A.) into the centrifuge tube. The procedure was repeated with intervention times of 0 (control sample), 10 and 20 min.
Sample Preparation - The centrifuge tubes containing the oral product and methanol (5 mL, p.A.) were vortexed for 10 sec and then placed on a plate shaker for 10 min to extract the remaining raspberry ketone glycoside. Afterwards, the tubes were centrifuged (13,200 rpm, 10 min) and the supernatant decanted into a safe lock tube (2 mL). The safe lock tube was centrifuged (13,200 rpm, 10 min) and an aliquot taken for analysis.
Quantitation of in-mouth glycoside degradation - Analysis was performed on a HPLC system (Knauer, Germany) equipped with a pump (AZURA P2.1S), auto-sampler (AZURA AS 6.1L) and diode-array UV/VIS detector (AZURA DAD 6.1L). Samples were loaded onto a reversed phase C18 column (Knauer, Eurospher II 100 C18, 3 mm × 100 mm) and separated with a 10 min gradient starting at 90% solvent mixture A (0.1% formic acid in water) in solvent mixture B (0.1% formic acid in methanol) at a flow rate of 0.5 mL/min changing to 30% A in 5 min and back to 90% A in 0.05 min holding for 4.5 min. The detection UV wavelength was set at 280 nm. Quantitation was performed by using an external calibration curve.
3 healthy volunteers were asked to place raspberry ketone spiked oral products under their upper lip according to a defined procedure and leave the pouch in their mouth for 5, 10 and 20 min. The remaining glycoside of the incubated samples as well as a control sample which was not incubated was extracted as described above and quantified by means of high pressure liquid chromatography and an external calibration curve.

[2] = glucosylation of furaneol by glycosyl transferase; assay type: biochemical, Vitis vinifera
Excerpt: At some instances, the present application refers to a glycosyl transferase being “capable of catalyzing” a certain reaction. For example, the present application may state that a glycosyl transferase is capable of catalyzing transfer of a sugar group from a sugar donor to a certain acceptor. This is meant to designate that under appropriate reaction conditions the rate at which the reaction product (in the example the adduct of the sugar group and the acceptor) is formed is at least 10-fold higher in the presence of said glycosyl transferase than the rate at which the reaction product is formed in a control experiment in the absence of said glycosyl transferase.

Molecule: 4-[4′-Hydroxy phenyl]-butan-2-one-4′-O-β-D-glucopyranoside [raspberry ketone glycoside]
- amount of raspberry ketone remaining in product ([1]; 0 min (control sample, not incubated), tester P-01, product spiked with 1200 ppm raspberry ketone glycoside): 0.2 mg/mL
- amount of raspberry ketone remaining in product ([1]; 0 min (control sample, not incubated), tester P-02, product spiked with 1200 ppm raspberry ketone glycoside): 0.2 mg/mL
- amount of raspberry ketone remaining in product ([1]; 0 min (control sample, not incubated), tester P-03, product spiked with 1200 ppm raspberry ketone glycoside): 0.2 mg/mL
- percentage release of raspberry ketone from glycoside ([1]; 0 min, tester P-01): 0%
- percentage release of raspberry ketone from glycoside ([1]; 0 min, tester P-02): 0%
- percentage release of raspberry ketone from glycoside ([1]; 0 min, tester P-03): 0%
- amount of raspberry ketone remaining in product ([1]; 5 min in mouth, tester P-01): 0.15 mg/mL
- percentage release of raspberry ketone from glycoside ([1]; 5 min in mouth, tester P-01): 25%
- amount of raspberry ketone remaining in product ([1]; 5 min in mouth, tester P-02): 0.13 mg/mL
- percentage release of raspberry ketone from glycoside ([1]; 5 min in mouth, tester P-02): 35%
- amount of raspberry ketone remaining in product ([1]; 5 min in mouth, tester P-03): 0.16 mg/mL
- percentage release of raspberry ketone from glycoside ([1]; 5 min in mouth, tester P-03): 20%
- amount of raspberry ketone remaining in product ([1]; 10 min in mouth, tester P-01): 0.12 mg/mL
- percentage release of raspberry ketone from glycoside ([1]; 10 min in mouth, tester P-01): 40%
- amount of raspberry ketone remaining in product ([1]; 10 min in mouth, tester P-02): 0.10 mg/mL
- percentage release of raspberry ketone from glycoside ([1]; 10 min in mouth, tester P-02): 50%
- amount of raspberry ketone remaining in product ([1]; 10 min in mouth, tester P-03): 0.16 mg/mL
- percentage release of raspberry ketone from glycoside ([1]; 10 min in mouth, tester P-03): 20%
- amount of raspberry ketone remaining in product ([1]; 20 min in mouth, tester P-01): 0.06 mg/mL
- percentage release of raspberry ketone from glycoside ([1]; 20 min in mouth, tester P-01): 70%
- amount of raspberry ketone remaining in product ([1]; 20 min in mouth, tester P-02): 0.06 mg/mL
- percentage release of raspberry ketone from glycoside ([1]; 20 min in mouth, tester P-02): 70%
- amount of raspberry ketone remaining in product ([1]; 20 min in mouth, tester P-03): 0.13 mg/mL
- percentage release of raspberry ketone from glycoside ([1]; 20 min in mouth, tester P-03): 35%
- glycoside enzymatically cleaved ([1]; after 20 min in mouth incubation, across all panellists): 35 - 70%

B1: WGT14: terpene glycosyl transferase VvGT14 from Vitis vinifera (SEQ ID NO: 1) (protein, listed as Vitis vinifera)
chain: MGSMEKPHAVCIPYPAQGHINPMLKVAKLLHFRGFRITFVNTEFNHTRLLKAQGPNSLNGLPTFQFETIPDGLPPSNVDATQDIPSLCASTKKNCLAPFRRLLAKLNDRGPPVTCIFSDAVMSFTLDAAQELGIPDLLLWTASACGFMAYVQYRSLIDKGFTPLKDESYLTNGYLDTVVDWIPGMKGIRLKDLPSFIRTTDPDDIMLDFAMGELERARKASAIIFNTFDALEQEVLDAIAPMYPPIYTIGPLQLLPDQIHDSELKLIGSNLWKEEPECLKWLDSKEPNSVVYVNYGSITVMTPQQLIEFAWGLANSNQSFLWILRPDLVSGESAILPPEFVAETEDRGLLAGWCPQEQVLTHQAIGGFLTHNGWNSTIEGLCAGVPMICWPFFAEQQTNCRYCCTEWGVGMEIDSDVKRDEVAKLVRELMVGEKGKVMKKKTMEWKHRAEVATTGPDGSSYLNLEKIFEQVLL
- capability of catalyzing glucosylation of furaneol [2]: capable of catalyzing glucosylation of furaneol
